Experimental data: paper PMC6620786 (Molecular pharmaceutics, 2019)

Assays:
ABCB1 = ABCB1 (Homo sapiens, UniProt P08183); experiment: vanadate-sensitive ATPase stimulation in insect cell membranes expressing ABCB1; assay type: biochemical
ABCG2 = target: T1, ABCG2 (Homo sapiens, UniProt Q9UNQ0); experiment: vanadate-sensitive ATPase stimulation in insect cell membranes expressing ABCG2; assay type: biochemical
T1 sequence (Q9UNQ0 1-655): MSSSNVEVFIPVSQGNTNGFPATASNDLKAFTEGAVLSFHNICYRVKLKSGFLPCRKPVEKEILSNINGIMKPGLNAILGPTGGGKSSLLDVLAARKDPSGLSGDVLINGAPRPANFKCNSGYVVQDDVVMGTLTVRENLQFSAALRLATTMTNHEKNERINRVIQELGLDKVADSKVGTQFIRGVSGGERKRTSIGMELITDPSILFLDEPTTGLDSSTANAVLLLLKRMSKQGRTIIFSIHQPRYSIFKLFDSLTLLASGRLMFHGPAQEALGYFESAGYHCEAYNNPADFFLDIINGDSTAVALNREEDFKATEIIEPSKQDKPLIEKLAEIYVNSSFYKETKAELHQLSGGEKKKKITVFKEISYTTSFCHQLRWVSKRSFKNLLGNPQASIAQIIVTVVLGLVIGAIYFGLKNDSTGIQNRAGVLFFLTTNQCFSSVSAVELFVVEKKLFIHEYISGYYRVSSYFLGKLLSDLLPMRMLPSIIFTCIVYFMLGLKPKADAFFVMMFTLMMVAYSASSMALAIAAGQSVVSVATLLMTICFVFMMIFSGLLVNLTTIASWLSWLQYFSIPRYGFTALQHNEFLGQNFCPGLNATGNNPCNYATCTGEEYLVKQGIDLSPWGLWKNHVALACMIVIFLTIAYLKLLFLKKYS

ABCB1, sequence (P08183 whole entry): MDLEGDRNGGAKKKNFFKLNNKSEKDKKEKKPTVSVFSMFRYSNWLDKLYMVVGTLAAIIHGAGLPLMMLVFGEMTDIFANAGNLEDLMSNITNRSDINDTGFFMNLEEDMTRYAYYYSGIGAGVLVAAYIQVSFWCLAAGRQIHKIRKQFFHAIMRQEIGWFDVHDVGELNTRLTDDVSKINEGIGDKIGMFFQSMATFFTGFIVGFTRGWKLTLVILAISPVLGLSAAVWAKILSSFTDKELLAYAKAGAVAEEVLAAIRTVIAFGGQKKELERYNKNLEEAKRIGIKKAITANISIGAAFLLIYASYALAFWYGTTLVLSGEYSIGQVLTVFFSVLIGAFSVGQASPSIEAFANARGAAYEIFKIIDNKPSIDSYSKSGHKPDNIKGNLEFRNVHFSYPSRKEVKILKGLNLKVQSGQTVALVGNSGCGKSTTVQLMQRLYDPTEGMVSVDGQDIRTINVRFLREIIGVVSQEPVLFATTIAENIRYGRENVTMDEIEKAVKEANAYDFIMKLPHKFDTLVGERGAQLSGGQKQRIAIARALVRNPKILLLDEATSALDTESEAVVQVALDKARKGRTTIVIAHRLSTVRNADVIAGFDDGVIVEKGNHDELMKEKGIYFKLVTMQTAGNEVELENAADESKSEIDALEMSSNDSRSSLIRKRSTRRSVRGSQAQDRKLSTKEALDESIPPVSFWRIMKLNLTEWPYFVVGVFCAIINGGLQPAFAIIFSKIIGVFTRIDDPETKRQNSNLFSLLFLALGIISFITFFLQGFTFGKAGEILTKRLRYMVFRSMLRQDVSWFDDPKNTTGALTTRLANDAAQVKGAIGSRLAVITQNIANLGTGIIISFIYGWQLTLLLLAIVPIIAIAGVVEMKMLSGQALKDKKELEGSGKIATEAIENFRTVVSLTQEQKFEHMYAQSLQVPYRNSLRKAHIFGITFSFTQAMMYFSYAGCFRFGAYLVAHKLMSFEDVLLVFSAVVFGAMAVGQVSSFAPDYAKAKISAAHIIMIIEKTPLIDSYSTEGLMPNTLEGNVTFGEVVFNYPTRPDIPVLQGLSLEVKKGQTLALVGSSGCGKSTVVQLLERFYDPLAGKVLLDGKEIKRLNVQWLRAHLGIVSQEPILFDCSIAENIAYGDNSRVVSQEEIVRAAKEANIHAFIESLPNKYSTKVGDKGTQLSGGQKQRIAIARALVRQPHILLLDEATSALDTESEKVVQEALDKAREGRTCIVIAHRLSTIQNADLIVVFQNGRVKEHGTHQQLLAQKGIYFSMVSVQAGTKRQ

Cn1cc(-c2cc3c(N4CCN(c5ncc([C@@](C)(N)c6ccc(F)cc6)cn5)CC4)ncnn3c2)cn1 [avapritinib]
EC50 (ABCB1): ~5000 nM
EC50 (ABCG2): ~200 nM
